Measurements published in patent publication US8507411B2, “Neoglycorandomization and digitoxin analogs” (priority 2004, dated 2013).

Experiments:
Hep3B = assay: High-throughput calcein AM cytotoxicity assay, Hep3B; format: cell-based, human; conditions: Hep 3B cells; read-out: IC50
Description: (§1) Standard errors are depicted with error bars.

NCI-H460 = assay: High-throughput calcein AM cytotoxicity assay, NCI-H460; format: cell-based, human; conditions: NCI-H460 cells; read-out: IC50
Description: as §1

HCT-116 = assay: High-throughput calcein AM cytotoxicity assay, HCT-116; format: cell-based, human; conditions: HCT-116 cells; read-out: IC50
Description: as §1

NmuMG = assay: cells; format: cell-based, mouse; conditions: NmuMG cells (mouse mammary normal epithelial control line); read-out: IC50
In short: (§2)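 Calcein fluorescence (485/535 nm) reports intracellular esterase activity of surviving cells after 72 h compound treatment. Each IC50 derives from at least six dose-response runs over a five-point two-fold dilution series.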

[1] = Hydrolytic stability of the neoglycosidic linkage; format: physicochemical; conditions: 3 mM in 1:1 DMSO/buffer, one month
Description: FIG. 4 is a graphic representation of the results of studies on the hydrolytic stability of neoglycoside 4α. The chemical stability of the neoglycosidic linkage was examined by monitoring the hydrolytic degradation of neoglycoside 4α in a 3 mM solution of 1:1 DMSO/buffer. Three buffers were used, 50 mM acetate buffer (pH 5), 50 mM phosphate buffer (pH 7), and 50 mM Tris buffer (pH 9). Neoglycoside degradation was monitored by reverse phase HPLC on an Agilent Zorbax Eclipse XDB-C8 column (4.6×150 mm) with a flow rate of 0.8 mL min^−1 and a linear gradient of 49% CH3OH/H2O to 89% CH3OH/H2O over 20 min. At t=0, neoglycoside 4α in 500 μL DMSO was added to 500 μL buffer, and the resulting solution was vortexed for 40 sec, then immediately injected onto the HPLC. Peak areas at 220 nm were used to estimate the neoglycoside/aglycon ratio, which is reported as “percent neoglycoside remaining” [Aneoglycoside/(Aneoglycoside+Aaglycon)] for each of the three buffer systems.
Hydrolytic Stability of 4α. The chemical stability of the neoglycosidic linkage was examined by monitoring the hydrolytic degradation of neoglycoside 4α in a 3 mM solution of 1:1 DMSO/buffer. Three buffers were used, 50 mM acetate buffer (pH 5), 50 mM phosphate buffer (pH 7), and 50 mM Tris buffer (pH 9). Neoglycoside degradation was monitored by reverse phase HPLC on an Agilent Zorbax Eclipse XDB-C8 column (4.6×150 mm) with a flow rate of 0.8 mL min^−1 and a linear gradient of 49% CH3OH/H2O to 89% CH3OH/H2O over 20 min. At t=0, neoglycoside 4α in 500 μL DMSO was added to 500 μL buffer, and the resulting solution was vortexed for 40 sec, then immediately injected onto the HPLC. Peak areas at 220 nm were used to estimate the neoglycoside/aglycon ratio, which is reported as “percent neoglycoside remaining” [Aneoglycoside/(Aneoglycoside+Aaglycon)] for each of the three buffer systems (see FIG. 4).
The chemical stability of the neoglycosidic linkage was examined by monitoring the hydrolytic degradation of neoglycoside 4α in a 3 mM solution of 1:1 DMSO/buffer using buffers at three different pHs.

A549 = assay: High-throughput calcein AM cytotoxicity assay, A549; format: cell-based, human; conditions: A549 cells; read-out: IC50
Description: as §1

MCF7 = assay: High-throughput calcein AM cytotoxicity assay, MCF7; format: cell-based, human; conditions: MCF7 cells; read-out: IC50
Description: as §1

NCI/ADR-RES = assay: cells; format: cell-based, human; conditions: NCI/ADR-RES cells; read-out: IC50
In short: as §2

SK-OV-3 = assay: cells; format: cell-based, human; conditions: SK-OV-3 cells; read-out: IC50
In short: as §2

SF-268 = assay: cells; format: cell-based, human; conditions: SF-268 cells; read-out: IC50
In short: as §2

Du145 = assay: High-throughput calcein AM cytotoxicity assay, Du145; format: cell-based, human; conditions: Du145 cells; read-out: IC50
Description: as §1

What does the source list for `CON([C@@H]1CC[C@@]2(C)[C@H](CC[C@@H]3[C@@H]2CC[C@]2(C)[C@@H](C4=CC(=O)OC4)CC[C@]32O)C1)[C@@H]1O[C@H](CO)[C@@H](O)[C@H](O)[C@H]1O` [4α, D-glucoside]?
IC50 (Hep3B): > 25 µM; IC50 (NCI-H460): > 25 µM; IC50 (HCT-116): > 25 µM; IC50 (NmuMG): > 25 µM; hydrolytic stability ([1]; acidic conditions (pH 5)): slowly hydrolyzed; hydrolytic stability ([1]; neutral or basic conditions (pH 7, pH 9)): completely stable; IC50 (A549): > 25 µM; IC50 (MCF7): > 25 µM; IC50 (NCI/ADR-RES): > 25 µM; IC50 (SK-OV-3): > 25 µM; IC50 (SF-268): > 25 µM; IC50 (Du145): > 25 µM
